Measured values reported in US20210179598A1, “SELECTIVE JAK2 INHIBITOR AND APPLICATION THEREOF” (EAST CHINA UNIVERSITY OF SCIENCE AND TECHNOLOGY, priority 2018, published 2021).
Where two headings read alike, the source gives them in different places.

Columns and labels:
[1] = target: JAK2 (Homo sapiens, UniProt O60674); test: JAK2 kinase activity test at molecular level (Z'-LYTE FRET); type: biochemical
Description: JAK2 can catalyze the transfer of a phosphate group of adenosine triphosphate (ATP) to a polypeptide substrate, and the polypeptide substrate is labeled with two fluorescent groups, coumarin and fluorescein. […] Therefore, the inhibition rates of different compounds can be calculated by measuring the ratio of enzyme-catalyzed substrate phosphorylation percentages.
10 μL reaction system, 2.5 μL test compound, 5 μL kinase/peptide substrate mixture and 2.5 μL ATP solution were added into a 384-well plate, shaken for 30 s, and incubated at room temperature for 1 hour. 5 μL of proteolytic enzyme and 15 μL of the reaction system were added and shaken for 30 s and incubated at room temperature for 1 h. 5 μL of stop reagent was added, and the reaction system with a total volume of 20 μL was shaken for 30 seconds. A microplate reader was used to detect the fluorescence signal. […] The inhibition rates of the compound at 7 concentration gradients were determined, and the IC50 value for each compound was calculated by fitting curve with Origin 8.0.
(§1) NOTE: HEL, SET-2, H3122 cells were purchased from ATCC (American type culture collection), Z′-LYTETM kinase assay platform was purchased from Invitrogen, HTRF KinEASETM-TK was purchased from Cisbio, and Cell Counting Kit-8 was purchased from Beyotime.

[2] = target: ALK (Homo sapiens, UniProt Q9UM73); test: ALK kinase IC50 test (HTRF); type: biochemical; conditions: Table 2
Chain of ALK (Q9UM73 19-1620, species assumed): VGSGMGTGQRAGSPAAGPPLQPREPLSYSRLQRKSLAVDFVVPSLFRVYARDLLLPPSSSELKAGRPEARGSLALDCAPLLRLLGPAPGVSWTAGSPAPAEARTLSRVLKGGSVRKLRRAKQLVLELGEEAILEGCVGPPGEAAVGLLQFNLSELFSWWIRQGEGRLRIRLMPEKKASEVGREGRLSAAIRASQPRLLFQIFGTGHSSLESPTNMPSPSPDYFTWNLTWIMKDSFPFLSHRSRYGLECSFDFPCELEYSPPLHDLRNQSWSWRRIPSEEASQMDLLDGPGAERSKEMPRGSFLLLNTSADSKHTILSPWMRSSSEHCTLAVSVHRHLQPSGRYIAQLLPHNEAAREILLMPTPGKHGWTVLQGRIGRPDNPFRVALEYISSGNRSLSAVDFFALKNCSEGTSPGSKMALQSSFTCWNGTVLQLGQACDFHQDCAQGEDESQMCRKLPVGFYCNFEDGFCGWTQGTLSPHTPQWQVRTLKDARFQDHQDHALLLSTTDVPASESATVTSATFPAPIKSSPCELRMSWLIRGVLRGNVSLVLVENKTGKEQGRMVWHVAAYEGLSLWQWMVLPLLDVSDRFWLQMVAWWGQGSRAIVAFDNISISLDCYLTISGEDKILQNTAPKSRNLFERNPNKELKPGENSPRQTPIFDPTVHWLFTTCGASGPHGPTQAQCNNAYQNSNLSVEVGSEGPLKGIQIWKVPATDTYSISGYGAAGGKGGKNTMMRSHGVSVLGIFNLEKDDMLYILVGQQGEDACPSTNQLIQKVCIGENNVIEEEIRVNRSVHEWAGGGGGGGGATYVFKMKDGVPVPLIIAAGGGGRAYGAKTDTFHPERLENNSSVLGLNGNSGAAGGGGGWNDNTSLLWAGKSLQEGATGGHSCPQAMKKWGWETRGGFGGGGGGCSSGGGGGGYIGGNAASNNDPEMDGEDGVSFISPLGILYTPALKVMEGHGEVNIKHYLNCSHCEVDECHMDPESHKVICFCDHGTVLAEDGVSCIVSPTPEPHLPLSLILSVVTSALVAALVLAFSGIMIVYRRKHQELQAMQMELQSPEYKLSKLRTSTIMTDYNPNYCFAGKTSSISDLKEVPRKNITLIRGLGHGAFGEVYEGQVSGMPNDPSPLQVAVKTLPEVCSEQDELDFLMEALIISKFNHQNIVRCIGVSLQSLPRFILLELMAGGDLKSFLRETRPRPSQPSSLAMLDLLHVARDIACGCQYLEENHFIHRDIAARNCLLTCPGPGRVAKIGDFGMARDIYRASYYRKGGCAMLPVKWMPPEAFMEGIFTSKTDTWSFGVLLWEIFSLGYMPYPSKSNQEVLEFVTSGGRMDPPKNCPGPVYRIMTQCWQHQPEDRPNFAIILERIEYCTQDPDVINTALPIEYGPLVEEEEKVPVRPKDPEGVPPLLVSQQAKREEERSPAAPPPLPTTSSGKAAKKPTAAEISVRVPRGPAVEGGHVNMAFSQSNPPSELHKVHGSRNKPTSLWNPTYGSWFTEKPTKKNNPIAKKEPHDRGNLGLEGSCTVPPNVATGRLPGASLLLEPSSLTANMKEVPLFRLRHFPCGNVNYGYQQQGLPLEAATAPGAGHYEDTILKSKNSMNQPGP
From the text: According to HTRF method, the peptide substrate was labeled with a biotin, which can specifically bind to XL665-labeled streptavidin. When the kinase adds a phosphate group to the polypeptide substrate in the first step, its Eu-labeled specific phosphorylation antibody can recognize and bind to it. In this way, in the second step of detection, a complex of XL665-labeled streptavidin, phosphorylated peptide substrate and Eu-labeled phosphorylation antibody can be formed. Since the distance between XL665 and Eu is short, FRET can be formed. On the other hand, Eu has a relatively long fluorescence half-life and can be applied to time-resolved fluorescence detection.
10 μL of reaction system, 4 μL test compound, 2 μL kinase, 2 μL biotin-labeled substrate and 2 μL ATP, was added into a 384-well plate, shaken for 30 s, and incubated at room temperature for 1 hour. 5 μL of Eu-labeled phosphorylation site-specific antibody and 5 μL of XL665-labeled streptavidin were added. The reaction system was shaken for 30 s, and incubated at room temperature for 1 hour. A microplate reader was used to detect the fluorescence signal. The inhibition rates of the compounds under 8 concentration gradients were determined, and the IC50 value of each compound was calculated by fitting curve with Origin 8.0. […] Each experiment was performed in triplicate.
as §1

[3] = system: SET 2 (JAK2 V617F) cells; test: CCK-8 cell proliferation detection, SET2 cells; type: cell-based; conditions: Homo sapiens, SET-2; Table 2; CCK-8, 72 hrs
From the text: (§2) WST-8 (chemical name: 2-(2-methoxy-4-nitrophenyl)-3-(4-nitrophenyl)-5-(2,4-disulfo benzene)-2H-tetrazolium monosodium), which is reduced to a highly water-soluble yellow formazan product (Formazan dye) by the dehydrogenase in cells under the action of the electron carrier dimethyl 1-methoxy-5-methylphenazinium sulfate (1-Methoxy PMS). The amount of the produced formazan is proportional to the number of living cells. Therefore, the survival rate of cells can be calculated indirectly by measuring the absorbance at 450 nm. The half inhibition rate of the compound on the proliferation of H3122, SET2, HEL cells can be determined by the CCK-8 method.
(§3) RPIM medium containing 10% FBS was used to culture cells (100 μL per well), and 3500 cells were inoculated into a 96-well plate, and placed in a 37° C., 5% CO2 incubator for 24 h, until 50%-70% of the cell confluence was achieved. Drugs with different concentration gradients were added respectively, and incubated for another 72 hrs. […] And finally the absorption value of each well was measured at 450 nm.
as §1

[4] = system: HEL (JAK2 V617F) cells; test: CCK-8 cell proliferation detection, HEL cells; type: cell-based; conditions: Homo sapiens, Table 2, CCK-8, 72 hrs
From the text: as §2, §3, §1

[5] = system: H3122 cells; test: CCK-8 cell proliferation detection, H3122 cells; type: cell-based; conditions: Homo sapiens, NCI-H3122; Table 2; CCK-8, 72 hrs
From the text: as §2, §3, §1

[6] = Table 1, read-out: JAK2 kinase activity IC50

Chain of JAK2 (O60674 whole entry): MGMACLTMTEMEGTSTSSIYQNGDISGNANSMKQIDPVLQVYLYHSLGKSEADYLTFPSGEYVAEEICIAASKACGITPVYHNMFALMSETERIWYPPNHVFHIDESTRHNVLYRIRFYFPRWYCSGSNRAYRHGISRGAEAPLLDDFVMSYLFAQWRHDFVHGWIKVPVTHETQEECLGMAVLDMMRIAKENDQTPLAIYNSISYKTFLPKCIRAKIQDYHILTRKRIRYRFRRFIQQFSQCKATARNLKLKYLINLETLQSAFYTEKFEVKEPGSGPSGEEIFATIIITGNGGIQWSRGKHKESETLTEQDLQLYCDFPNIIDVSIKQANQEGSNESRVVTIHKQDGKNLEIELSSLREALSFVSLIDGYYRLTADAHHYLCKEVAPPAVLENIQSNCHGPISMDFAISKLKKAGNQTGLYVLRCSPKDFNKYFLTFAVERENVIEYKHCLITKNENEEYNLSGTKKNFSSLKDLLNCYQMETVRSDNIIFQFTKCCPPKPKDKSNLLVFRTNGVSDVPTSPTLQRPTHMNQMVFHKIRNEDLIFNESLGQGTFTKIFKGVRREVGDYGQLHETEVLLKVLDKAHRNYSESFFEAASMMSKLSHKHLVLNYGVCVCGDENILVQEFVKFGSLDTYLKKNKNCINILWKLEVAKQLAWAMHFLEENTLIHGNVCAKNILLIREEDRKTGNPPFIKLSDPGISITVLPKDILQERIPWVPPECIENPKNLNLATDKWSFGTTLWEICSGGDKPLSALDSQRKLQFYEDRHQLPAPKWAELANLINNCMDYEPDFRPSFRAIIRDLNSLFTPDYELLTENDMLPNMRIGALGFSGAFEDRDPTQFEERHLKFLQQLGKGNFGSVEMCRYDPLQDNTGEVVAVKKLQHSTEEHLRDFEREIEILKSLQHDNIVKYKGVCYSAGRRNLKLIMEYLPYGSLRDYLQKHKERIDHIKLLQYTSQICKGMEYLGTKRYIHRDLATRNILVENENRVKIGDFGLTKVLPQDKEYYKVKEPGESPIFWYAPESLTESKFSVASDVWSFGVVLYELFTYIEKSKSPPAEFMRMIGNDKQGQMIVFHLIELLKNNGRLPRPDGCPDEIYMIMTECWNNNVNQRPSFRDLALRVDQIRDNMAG

Compound	IC50 [1, 6] [µM]	IC50 ([1]; Table 2, read-out: JAK2 IC50) [µM]	IC50 [2] [µM]	IC50 [3] [µM]	IC50 [4] [µM]	IC50 [5] [µM]	melting point [°C]
CC(Oc1cc(-c2cnn(C3CCNCC3)c2)cnc1N)c1c(Cl)cccc1Cl (centres unmarked) [WWQ-133, 4-{3-[1-(2,6-dichlorophenyl)ethoxy]-2-aminopyridine}pyrazol-1-piperidine]	0.442 ± 0.003	0.442 ± 0.003	0.511	0.879	15	> 10	–
COc1ccc(F)c(Cl)c1C(C)Oc1cc(-c2cnn(C3CCNCC3)c2)cnc1N (centres unmarked) [WWQ-175, 4-{3-[1-(2-chloro-3-fluoro-6-methoxyphenyl)ethoxy]-2-aminopyridine}pyrazol-1-piperidine]	0.0265 ± 0.0265	–	0.423	0.916	11.3	4.83 ± 0.082	189.8 to 191.3
C[C@@H](Oc1cc(-c2cccnc2)cnc1N)c1c(Cl)ccc(F)c1Cl [WWQ-189, (R)-5-[1-(2,6-dichloro-3-fluorophenyl)ethoxy]-[3,3′-dipyridine]-6-amine]	3.05 ± 0.204	–	> 10	11.1	13.2	6.32 ± 0.128	158.8 to 159.8
C[C@@H](Oc1cc(-c2ccc(N3CCNCC3)nc2)cnc1N)c1c(Cl)ccc(F)c1Cl [WWQ-191, (R)-5-[1-(2,6-dichloro-3-fluorophenyl)ethoxy]-6′-piperazin-[3,3′-dipyridine]-6-amine]	0.804 ± 0.009	–	3.44	3.22	30.1	1.17 ± 0.093	197.8 to 198.5
CC(Oc1cc(-c2cnn(C3CCNCC3)c2)cnc1N)C1CCCCC1 (centres unmarked) [WWQ-197, 4-{3-[1-cyclohexaneethoxy]-2-aminopyridine}pyrazol-1-piperidine]	3.4 ± 0.431	3.4 ± 0.431	> 10	7.02	12.9	20.7 ± 0.394	192.2 to 193.4
CCC(Oc1cc(-c2cnn(C3CCNCC3)c2)cnc1N)c1c(Cl)ccc(F)c1Cl (centres unmarked) [WWQ-1093-13, 4-{3-[1-(2,6-dichloro-3-fluorophenyl)propoxy]-2-aminopyridine}pyrazol-1-piperidine]	0.1 ± 0.002	0.1 ± 0.002	3.56	7.86	37.3	3.537 ± 0.034	–
C[C@@H](Oc1cc(-c2cncc(N3CCNCC3)c2)cnc1N)c1c(Cl)ccc(F)c1Cl [WWQ-1093-23, (R)-5-[1-(2,6-dichloro-3-fluorophenyl)ethoxy]-5′-piperazine-[3,3′-dipyridine]-6-amine]	0.119 ± 0.0082	–	2.44	2.89	10.4	1.54 ± 0.034	189.7 to 190.6
C[C@@H](Oc1cc(-c2cnn(C3CCNCC3)c2)cnc1N)c1ccccc1 [WWQ-1093-25, 4-[3-(1-phenylpropoxy)-2-aminopyridine]pyrazole-1-piperidine]	0.215 ± 0.0124	–	5.43	4.61	13.7	3.52 ± 0.102	194.2 to 195
C[C@@H](Oc1cc(-c2cnn(C3CCOCC3)c2)cnc1N)c1c(Cl)ccc(F)c1Cl [WWQ-1093-27]	0.0647 ± 0.0004	–	0.855	1.68	8.05	7.18 ± 0.838	188.1 to 190.4
COc1ccc(F)cc1C(C)Oc1cc(-c2cnn(C3CCNCC3)c2)cnc1N (centres unmarked) [WWQ-1093-71]	0.003 ± 0.0001	0.003 ± 0.0001	1.33	0.616	9.97	< 0.5	191.6 to 192.3
C[C@@H](Nc1cc(-c2cnn(C3CCNCC3)c2)cnc1N)c1c(Cl)ccc(F)c1Cl [WWQ-1093-73, 4-{3-[1-(2,6-dichloro-3-fluorophenyl)ethylamino]-2-aminopyridine}pyrazole-1-piperidine]	0.126 ± 0.0053	–	3.45	2.2	13.4	4.366 ± 0.005	191.5 to 191.7
CC(Oc1cc(-c2ccccc2)cnc1N)c1cc(F)ccc1Cl (centres unmarked) [WWQ-1093-75, 3-(1-(2-chloro-5-fluorophenyl)ethoxy)-2-amino-5-phenylpyridine]	0.461 ± 0.002	0.461 ± 0.002	> 10	33.2	24.5	14.4 ± 4.21	199 to 199.8
Cc1n[nH]c(C)c1-c1cnc(N)c(OC(C)c2cc(F)ccc2Cl)c1 (centres unmarked) [XFL-107]	–	0.844 ± 0.1	3.37	3.35	9.14	1.45 ± 0.118	–
CC(Oc1cc(-c2cnn(C)c2)cnc1N)c1cc(F)ccc1Cl (centres unmarked) [XFL-111]	–	0.024 ± 0.002	0.201	7.56	9.05	3.52 ± 0.605	–
CC(Oc1cc(-c2cnoc2)cnc1N)c1cc(F)ccc1Cl (centres unmarked) [XFL-137]	–	> 10	> 10	> 10	> 50	> 100	–
Cc1n[nH]cc1-c1cnc(N)c(OC(C)c2cc(F)ccc2Cl)c1 (centres unmarked) [XFL-147]	–	0.0408 ± 0.0006	0.438	4.05	6.15	2.1 ± 0.344	–
CC(Oc1cc(-c2nccs2)cnc1N)c1cc(F)ccc1Cl (centres unmarked) [XFL-169]	–	1.12 ± 0.014	> 10	8.17	15.9	> 100	–
CC(Oc1cc(-c2cn(C)cn2)cnc1N)c1cc(F)ccc1Cl (centres unmarked) [XFL-171]	–	1.84 ± 0.025	> 10	4.47	13.5	11.9 ± 0.31	–
CC(Oc1cc(-n2cccn2)cnc1N)c1cc(F)ccc1Cl (centres unmarked) [XFL-179]	–	0.931 ± 0.032	7.78	> 50	> 50	> 100	–
